Structures can show the parent of a compound that is named as a salt.
Experiments:
[1] = system: L6-myotubes; assay: Measurement of intracellular cAMP levels (alpha screen cAMP kit) in differentiated cells, compared to isoproterenol; format: cell-based; settings: 0.25 h, compound at 10 μM vs isoproterenol at 10 μM, 15 min stimulation, read-out: Biological example 2: intracellular cAMP level activity compared to that of isoproterenol
Procedure: (§1) L6-myoblasts were grown in Dulbecco's Modified Eagle's Medium (DMEM) containing 1 g/L glucose supplemented with 10% fetal bovine serum, 2 mM L-Glutamine, 50 U/mL penicillin, […] streptomycin and 10 mM HEPES. Cells were plated at 1×10^5 cells per mL in 24-well plates. After reaching 90% confluence the cells were grown in medium containing 2% FBS for 7 days where upon cells differentiated into myotubes.
Differentiated cells were serum-starved overnight and stimulated with an agonist, final concentration 1×10^−5 M, for 15 min in stimulation buffer (HBSS supplemented with 1% BSA, 5 mM HEPES and 1 mM IBMX, pH 7.4). The medium was aspirated and 100 μL of 95% EtOH was added to each well of the 24-well plate and cells were kept at −20° C. overnight. The EtOH was allowed to evaporate and 500 μL of lysis buffer (1% BSA, 5 mM HEPES and 0.3% Tween-20, pH 7.4) was added to each well. The plate was kept at −80° C. for 30 min and then at −20° C. until the day of detection when the samples were thawed. Intracellular cAMP levels were detected using an alpha screen cAMP kit (6760635D from Perkin Elmer). The activity for each compound is compared to that of isoproterenol.

[2] = system: L6-myotubes; assay: Glucose uptake (3H-2-deoxyglucose) in differentiated L6-myotubes, compared to isoproterenol; format: cell-based; settings: compound at 10 μM vs isoproterenol at 10 μM, read-out: Biological example 1: glucose uptake activity compared to that of isoproterenol
Procedure: as §1
Differentiated L6-myotubes were serum-starved overnight in medium containing 0.5% fatty-acid free BSA and stimulated with an agonist, with a final concentration of 1×10^−5 M. After 1 h 40 min the cells were washed with warm glucose free medium or PBS twice and another portion of agonist was added to the glucose free medium. After 20 min the cells were exposed to 50 nM ^3H-2-deoxyglucose for another 10 min before washed in ice cold glucose free medium or PBS three times and lysed in 400 μL/well 0.2 M NaOH for 1 h at 60° C. The cell lysate was mixed with 4 mL scintillation buffer (Emulsifier Safe, Perkin Elmer) and the radioactivity was detected in a p-counter (Tri-Carb 4810TR, Perkin Elmer). The activity for each compound is compared to that of isoproterenol.

## COC(=O)N1CCC(CC(C)(C)NC[C@H](O)c2cncc(F)c2)CC1 [Example 49, Methyl (R)-4-(2-((2-(5-Fluoropyridin-3-yl)-2-hydroxyethyl)amino)-2-methylpropyl)piperidine-1-carboxylate dihydrochloride]
[1]
  Emax at 10 µM: < 25%
[2]
  Emax at 10 µM: > 75%

## CN(C)C(=O)N1CCC(CC(C)(C)NC[C@H](O)c2cncc(F)c2)CC1 [Example 50, (R)-4-(2-((2-(5-Fluoropyridin-3-yl)-2-hydroxyethyl)amino)-2-methyl-propyl)-N,N-dimethylpiperidine-1-carboxamide dihydrochloride]
[1]
  Emax at 10 µM: < 25%
[2]
  Emax at 10 µM: 50 to 75%

## CNC(=O)N1CCC(CC(C)(C)NC[C@H](O)c2cncc(F)c2)CC1 [Example 51, (R)-4-(2-((2-(5-Fluoropyridin-3-yl)-2-hydroxyethyl)amino)-2-methyl-propyl)-N-methylpiperidine-1-carboxamide dihydrochloride]
[1]
  Emax at 10 µM: < 25%
[2]
  Emax at 10 µM: 50 to 75%

## CC(C)(C[C@H]1CCNC(=O)C1)NC[C@H](O)c1cccc(F)c1 [Example 52, (R)-4-(2-(((R)-2-(3-Fluorophenyl)-2-hydroxyethyl)amino)-2-methyl-propyl)piperidin-2-one]
[1]
  Emax at 10 µM: < 25%
[2]
  Emax at 10 µM: 50 to 75%

## CC(C)(C[C@@H]1CCNC(=O)C1)NC[C@H](O)c1cccc(F)c1 [Example 53, (S)-4-(2-(((R)-2-(3-Fluorophenyl)-2-hydroxyethyl)amino)-2-methyl-propyl)piperidin-2-one]
[1]
  Emax at 10 µM: > 75%
[2]
  Emax at 10 µM: > 75%

## CC(C)(C[C@H]1CCNC(=O)C1)NC[C@H](O)c1cncc(F)c1 [Example 54, (R)-4-(2-(((R)-2-(5-Fluoropyridin-3-yl)-2-hydroxyethyl)amino)-2-methylpropyl)piperidin-2-one]
[1]
  Emax at 10 µM: < 25%
[2]
  Emax at 10 µM: 50 to 75%

## CC(C)(C[C@@H]1CCNC(=O)C1)NC[C@H](O)c1cncc(F)c1 [Example 55, (S)-4-(2-(((R)-2-(5-Fluoropyridin-3-yl)-2-hydroxyethyl)amino)-2-methylpropyl)piperidin-2-one]
[1]
  Emax at 10 µM: 50 to 75%
[2]
  Emax at 10 µM: > 75%

## CC(C)(C[C@H]1CCN(C(=O)OC(C)(C)C)C1)NC[C@H](O)c1cccc(F)c1 [Example 56, tert-Butyl (R)-3-(2-(((R)-2-(3-fluorophenyl)-2-hydroxyethyl)amino)-2-methylpropyl)pyrrolidine-1-carboxylate]
[1]
  Emax at 10 µM: < 25%
[2]
  Emax at 10 µM: 50 to 75%

## CC(C)(C[C@H]1CCNC1)NC[C@H](O)c1cccc(F)c1 [Example 57, (R)-1-(3-Fluorophenyl)-2-((2-methyl-1-((R)-pyrrolidin-3-yl)propan-2-yl)amino)ethan-1-ol]
[1]
  Emax at 10 µM: < 25%
[2]
  Emax at 10 µM: > 75%

## CC(=O)N1CC[C@H](CC(C)(C)NC[C@H](O)c2cccc(F)c2)C1 [Example 58, 1-((R)-3-(2-(((R)-2-(3-Fluorophenyl)-2-hydroxyethyl)amino)-2-methylpropyl)pyrrolidin-1-yl)ethan-1-one]
[1]
  Emax at 10 µM: < 25%
[2]
  Emax at 10 µM: > 75%

## CC(C)(C[C@H]1CCN(S(C)(=O)=O)C1)NC[C@H](O)c1cccc(F)c1 [Example 59, (R)-1-(3-Fluorophenyl)-2-((2-methyl-1-((R)-1-(methylsulfonyl)-pyrrolidin-3-yl)propan-2-yl)amino)ethan-1-ol]
[1]
  Emax at 10 µM: < 25%
[2]
  Emax at 10 µM: > 75%

## CC(C)(C[C@H]1CCN(C(=O)OC(C)(C)C)C1)NC[C@H](O)c1cncc(F)c1 [Example 60, tert-Butyl (R)-3-(2-(((R)-2-(5-fluoropyridin-3-yl)-2-hydroxyethyl)-amino)-2-methylpropyl)pyrrolidine-1-carboxylate]
[1]
  Emax at 10 µM: < 25%
[2]
  Emax at 10 µM: 50 to 75%

## CC(=O)N1CC[C@H](CC(C)(C)NC[C@H](O)c2cncc(F)c2)C1 [Example 62, 1-((R)-3-(2-(((R)-2-(5-Fluoropyridin-3-yl)-2-hydroxyethyl)amino)-2-methylpropyl)pyrrolidin-1-yl)ethan-1-one]
[1]
  Emax at 10 µM: < 25%
[2]
  Emax at 10 µM: > 75%

## CC(C)(C[C@H]1CCN(S(C)(=O)=O)C1)NC[C@H](O)c1cncc(F)c1 [Example 63, (R)-1-(5-Fluoropyridin-3-yl)-2-((2-methyl-1-((R)-1-(methylsulfonyl)-pyrrolidin-3-yl)propan-2-yl)amino)ethan-1-ol]
[1]
  Emax at 10 µM: < 25%
[2]
  Emax at 10 µM: > 75%

## CC(C)(C[C@@H]1CCN(C(=O)OC(C)(C)C)C1)NC[C@H](O)c1cccc(F)c1 [Example 64, tert-Butyl (S)-3-(2-(((R)-2-(3-fluorophenyl)-2-hydroxyethyl)amino)-2-methylpropyl)pyrrolidine-1-carboxylate]
[1]
  Emax at 10 µM: > 75%
[2]
  Emax at 10 µM: 50 to 75%

## CC(C)(C[C@@H]1CCNC1)NC[C@H](O)c1cccc(F)c1 [Example 65, (R)-1-(3-Fluorophenyl)-2-((2-methyl-1-((S)-pyrrolidin-3-yl)propan-2-yl)amino)ethan-1-ol]
[1]
  Emax at 10 µM: > 75%
[2]
  Emax at 10 µM: > 75%

## CC(=O)N1CC[C@@H](CC(C)(C)NC[C@H](O)c2cccc(F)c2)C1 [Example 66, 1-((S)-3-(2-(((R)-2-(3-Fluorophenyl)-2-hydroxyethyl)amino)-2-methylpropyl)pyrrolidin-1-yl)ethan-1-one]
[1]
  Emax at 10 µM: 25 to 50%
[2]
  Emax at 10 µM: > 75%

## CC(C)(C[C@@H]1CCN(S(C)(=O)=O)C1)NC[C@H](O)c1cccc(F)c1 [Example 67, (R)-1-(3-Fluorophenyl)-2-((2-methyl-1-((S)-1-(methylsulfonyl)-pyrrolidin-3-yl)propan-2-yl)amino)ethan-1-ol]
[1]
  Emax at 10 µM: < 25%
[2]
  Emax at 10 µM: > 75%

## CC(C)(C[C@@H]1CCN(C(=O)OC(C)(C)C)C1)NC[C@H](O)c1cncc(F)c1 [Example 68, tert-Butyl (S)-3-(2-(((R)-2-(5-fluoropyridin-3-yl)-2-hydroxyethyl)-amino)-2-methylpropyl)pyrrolidine-1-carboxylate]
[1]
  Emax at 10 µM: 25 to 50%
[2]
  Emax at 10 µM: > 75%

## CC(C)(C[C@@H]1CCNC1)NC[C@H](O)c1cncc(F)c1 [Example 69, (R)-1-(5-Fluoropyridin-3-yl)-2-((2-methyl-1-((S)-pyrrolidin-3-yl)-propan-2-yl)amino)ethan-1-ol]
[1]
  Emax at 10 µM: < 25%
[2]
  Emax at 10 µM: > 75%

## CC(=O)N1CC[C@@H](CC(C)(C)NC[C@H](O)c2cncc(F)c2)C1 [Example 70, 1-((S)-3-(2-(((R)-2-(5-Fluoropyridin-3-yl)-2-hydroxyethyl)amino)-2-methylpropyl)pyrrolidin-1-yl)ethan-1-one]
[1]
  Emax at 10 µM: < 25%
[2]
  Emax at 10 µM: > 75%

## CC(C)(C[C@@H]1CCN(S(C)(=O)=O)C1)NC[C@H](O)c1cncc(F)c1 [Example 71, (R)-1-(5-Fluoropyridin-3-yl)-2-((2-methyl-1-((S)-1-(methylsulfonyl)-pyrrolidin-3-yl)propan-2-yl)amino)ethan-1-ol]
[1]
  Emax at 10 µM: < 25%
[2]
  Emax at 10 µM: > 75%

## CC(C)(C[C@@H]1CNC(=O)C1)NC[C@H](O)c1cccc(F)c1 [Example 72, (S)-4-(2-(((R)-2-(3-Fluorophenyl)-2-hydroxyethyl)amino)-2-methyl-propyl)pyrrolidin-2-one hydrochloride]
[1]
  Emax at 10 µM: 50 to 75%
[2]
  Emax at 10 µM: > 75%

## CC(C)(C[C@H]1CCNC1=O)NC[C@H](O)c1cccc(F)c1 [Example 73, (R)-3-(2-(((R)-2-(3-Fluorophenyl)-2-hydroxyethyl)amino)-2-methyl-propyl)pyrrolidin-2-one hydrochloride]
[1]
  Emax at 10 µM: < 25%
[2]
  Emax at 10 µM: > 75%

## CC(C)(C[C@@H]1CNC(=O)C1)NC[C@H](O)c1cncc(F)c1 [Example 74, (S)-4-(2-(((R)-2-(5-Fluoropyridin-3-yl)-2-hydroxyethyl)amino)-2-methylpropyl)pyrrolidin-2-one dihydrochloride]
[1]
  Emax at 10 µM: 25 to 50%
[2]
  Emax at 10 µM: > 75%

## CC(C)(C[C@H]1CCNC1=O)NC[C@H](O)c1cncc(F)c1 [Example 75, (R)-3-(2-(((R)-2-(5-Fluoropyridin-3-yl)-2-hydroxyethyl)amino)-2-methylpropyl)pyrrolidin-2-one dihydrochloride]
[1]
  Emax at 10 µM: < 25%
[2]
  Emax at 10 µM: 25 to 50%

## CC(C)(C[C@H]1CNC(=O)C1)NC[C@H](O)c1cccc(F)c1 [Example 76, (R)-4-(2-(((R)-2-(3-Fluorophenyl)-2-hydroxyethyl)amino)-2-methyl-propyl)pyrrolidin-2-one hydrochloride]
[1]
  Emax at 10 µM: < 25%
[2]
  Emax at 10 µM: > 75%

## CC(C)(C[C@@H]1CCNC1=O)NC[C@H](O)c1cccc(F)c1 [Example 77, (S)-3-(2-(((R)-2-(3-Fluorophenyl)-2-hydroxyethyl)amino)-2-methyl-propyl)pyrrolidin-2-one hydrochloride]
[1]
  Emax at 10 µM: < 25%
[2]
  Emax at 10 µM: 50 to 75%

Reference: patent US20260242335A1, “HETEROCYCLOALKYL BETA-HYDROXY ALKYL AMINES FOR USE IN THE TREATMENT OF HYPERGLYCAEMIA AND DISORDERS CHARACTERISED BY HYPERGLYCAEMIA” (ATROGI AB, priority 2023, published 2026)
